One data set has as its target T1, KAT6A (Homo sapiens, UniProt Q92794).
T1 construct: purchased Active Motif 81223
Nature of the data set: KATs acetyltransferase enzyme activity assay (TR-FRET), KAT6A. The class given is biochemical. Particulars: Biotin-H3 (1-21) and AcCOA, 90 minutes at room temperature.

The test system of data set [1] is ZR-75-1 H3K23 Acetylation. Nature of the data set: Histone H3 acetylation assay (H3K23 acetylation in ZR-75-1 cells). The class given is cell-based. The settings on record: Homo sapiens, 72 hours incubation, Odyssey CLx fluorescence, read-out: ZR-75-1 H3K23 Acetylation Inhibition IC50. The procedure, abridged: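 ZR-75-1 cells exposed to serially diluted compounds for 72 h at 37°C, then fixed with 4 w/v% paraformaldehyde, methanol-permeabilized and immunostained for acetyl-H3K23 and total histone H4. Fluorescent secondary antibody signals quantified by imaging; IC50 from four-parameter logistic nonlinear regression.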

Data set [2] concerns human breast cancer ZR-75-1 cell xenografts. Nature of the data set: In vivo efficacy study in BALB/c nude mouse model with subcutaneous ZR-75-1 xenografts. The settings on record: for T/C / TGI / Tumor Volume: 0.3 mg/kg; for T/C / TGI: based on tumor volume on day 21 post-administration; for Tumor Volume: day 21 post-administration, female BALB/c nude mice, 7 per group; for anti-tumor effects: ZR-75-1 xenograft model, tumor growth curves FIG. 2, result in words. The source says: IV. In vivo efficacy study of test drug Compound 2, Compound 5-P2, Compound 3, and Compound A in a BALB/c nude mouse model with subcutaneously implanted human breast cancer ZR-75-1 cell xenografts
The objective of this experiment is to evaluate the in vivo efficacy of the test drug Compound 2, Compound 5-P2, Compound 3, and Compound A in a BALB/c nude mouse model with subcutaneously implanted human breast cancer ZR-75-1 cell xenografts.
(§1) • Species: Mouse; • Strain: BALB/c nude mice; • Age and weight: 6-8 weeks old, weighing 19-26 grams; • Gender: Female; • Supplier: GemPharmatech Co., Ltd.; • Compound source: Compound A: [drawing 190] prepared with reference to patent CN114364672A.
Human breast cancer ZR-75-1 (ATCC, CRL-1500) cells were cultured in vitro as adherent cultures. The culture conditions were: 1640 medium supplemented with 10 vol% FBS, 100 U/mL penicillin, and 100 µg/mL streptomycin, incubated in a 37°C, 5% CO2 cell culture incubator. Routine passaging was performed twice a week. When cell confluence reached 80%-90% and the cell number met the requirements, cells were harvested, counted, and inoculated.
Three days before cell implantation, a 17β-estrogen pellet (0.36 mg) was implanted into the left dorsal side of each mouse. Starting one week after pellet implantation, animals were urinated 2-3 times per week. If necessary, animals were urinated daily.
(§2) A mixture containing 10×10^6 ZR-75-1 cells in 100 µL PBS and 100 µL Matrigel (final volume was 200 µL) was subcutaneously implanted into the right dorsal side (upper side) of each mouse. On day 18 after cell implantation, when the average tumor volume reached 138 mm^3, grouping and administration were initiated. Mice with tumor volumes ranging from 100 to 212 mm^3 were selected for the study. Mice were randomly assigned to groups based on body weight and tumor volume, with 7 mice per group. The day of grouping was designated as PG-D0, and administration for all groups started from PG-D0.
The experimental index is to investigate whether tumor growth is inhibited, delayed, or cured. Tumor diameters were measured three times per week using a vernier caliper. Tumor volume was calculated using the formula: V = 0.5a × b^2, where a and b represent the major and minor diameters of the tumor, respectively.
The anti-tumor efficacy of the compounds was evaluated using TGI (%) or the relative tumor proliferation rate T/C (%). TGI (%), reflects the tumor growth inhibition rate. TGI (%) was calculated as: TGI (%) = [1 - (Mean tumor volume of a treatment group at the end of administration - Mean tumor volume of the same treatment group at the start of administration) / (Mean tumor volume of the vehicle control group at the end of treatment - Mean tumor volume of the vehicle control group at the start of treatment)] × 100%.
Relative Tumor Proliferation Rate T/C (%): The calculation formula is as follows: T/C% = TRTV / CRTV ×100 % (TRTV: RTV of the treatment group; CRTV: RTV of the negative control group). The relative tumor volume (RTV) was calculated based on tumor measurement results using the formula RTV = Vt /V0, where V0 is the tumor volume of each mouse measured at the start of grouping and administration (i.e., d0), and Vt is the tumor volume of each mouse at a specific measurement time. The mean value for each group was then calculated. V0 and Vt correspond to tumor volume data from the same mouse.

Data set [3] in a line: Body weight changes and tolerability in the ZR-75-1 xenograft study. The class given is in vivo, Mouse. Particulars: result in words; for body weight changes: differences among the groups, FIG. 1; for tolerability in tumor-bearing mice: human breast cancer ZR-75-1 model. The method, then: as §1, §2
The effects of the test drugs Compound 2, Compound 5-P2, Compound 3, and Compound A on the body weight of the female BALB/c nude mouse model with subcutaneously implanted human breast cancer ZR-75-1 cell xenografts are shown in FIG. 1.

As usually defined, the IC50 is the concentration that inhibits the measured activity by half. Usually T/C stands for the result in the treated group divided by that in the control group, in per cent.

T1 sequence (Q92794 488-778 limits assumed): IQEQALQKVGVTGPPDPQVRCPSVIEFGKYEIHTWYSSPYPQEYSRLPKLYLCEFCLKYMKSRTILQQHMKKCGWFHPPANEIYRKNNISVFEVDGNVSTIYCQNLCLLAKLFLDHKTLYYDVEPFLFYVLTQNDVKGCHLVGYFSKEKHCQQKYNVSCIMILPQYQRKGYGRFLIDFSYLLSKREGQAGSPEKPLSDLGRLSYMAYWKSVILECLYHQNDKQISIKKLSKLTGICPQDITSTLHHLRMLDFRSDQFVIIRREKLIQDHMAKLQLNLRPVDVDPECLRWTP

`COc1ccc2c(c1S(=O)(=O)Nc1noc3cc(Cn4cccn4)cc(OC)c13)OCCCO2` [Compound 2, N-(6-((1H-Pyrazol-1-yl)methyl)-4-methoxybenzo[d]isoxazol-3-yl)-7-methoxy-3,4-dihyd ro-2H-benzo[b][1,4]dioxepine-6-sulfonamide] gave an IC50 against KAT6A of 3.2 nM. Besides, in data set [1], the IC50 was determined as 5.1 nM. Also, in data set [2], the T/C is 20.83%, the TGI is on record as 93.97%, the “Tumor Volume” value is listed as 182 ± 39 mm^3 and the anti-tumor effects result is “more significant anti-tumor effects compared to Compound A”. In addition, in data set [3], the body weight changes result is “not significant” and the “tolerability in tumor-bearing mice” value is on record as “tolerated”.
As to `COc1ccc2c(c1S(=O)(=O)Nc1noc3cc(Cn4cccn4)cc(OC)c13)OC[C@@H]1C[C@H]21` [Compound 5-P2, (1aR,7bS)-N-(6-((1H-Pyrazol-1-yl)methyl)-4-methoxybenzo[d]isoxazol-3-yl)-5-methoxy-1,1a,2,7b-tetrahydrocyclopropa[c]chromene-4-sulfonamide], the IC50 against KAT6A turned out to be 1.1 nM. In addition, the 50% inhibitory concentration (IC50) in data set [1] stood at 0.5 nM. Also, in data set [2], the T/C was 12.10%, the TGI stood at 105.10%, the “Tumor Volume” value is 102 ± 14 mm^3 and the anti-tumor effects entry is reported as “more significant anti-tumor effects compared to Compound A”. For the same compound, in data set [3], the body weight changes result was “not significant” and the “tolerability in tumor-bearing mice” value is given as “tolerated”.
